# In ChEMBL document CHEMBL1201862, “PubChem BioAssay data set” (2004):
# Calls of active or inactive are those of the source.
# What was measured:
# Protein skinhead-1 = biological target: T1, Protein skinhead-1 (Caenorhabditis elegans, UniProt P34707); type: functional
# T1 sequence (P34707 whole entry): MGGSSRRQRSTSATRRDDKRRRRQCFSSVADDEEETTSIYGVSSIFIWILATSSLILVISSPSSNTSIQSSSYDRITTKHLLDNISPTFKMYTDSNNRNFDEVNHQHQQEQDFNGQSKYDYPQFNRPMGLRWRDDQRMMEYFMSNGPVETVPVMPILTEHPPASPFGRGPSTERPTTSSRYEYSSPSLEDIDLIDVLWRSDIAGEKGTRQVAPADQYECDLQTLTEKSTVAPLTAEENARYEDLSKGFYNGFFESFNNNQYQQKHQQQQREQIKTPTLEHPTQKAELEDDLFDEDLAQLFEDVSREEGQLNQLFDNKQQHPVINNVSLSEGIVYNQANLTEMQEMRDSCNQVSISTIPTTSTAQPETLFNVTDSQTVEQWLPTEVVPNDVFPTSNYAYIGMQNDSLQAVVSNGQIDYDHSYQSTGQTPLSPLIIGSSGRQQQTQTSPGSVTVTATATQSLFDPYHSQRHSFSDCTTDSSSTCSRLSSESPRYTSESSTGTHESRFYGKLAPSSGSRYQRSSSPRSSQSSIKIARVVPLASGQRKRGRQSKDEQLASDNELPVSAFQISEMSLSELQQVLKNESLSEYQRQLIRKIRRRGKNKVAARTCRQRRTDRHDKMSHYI
# [1] = biological target: E3 ubiquitin-protein ligase Mdm2 (Homo sapiens, UniProt Q00987); test: MDM2-luc reporter signal enhancers, multi-concentration potency testing, MDM2 ubiquitin-protein ligase inhibitor program, whole-cell format, luminescence detection, 384-well microplate (AID 1394); type: functional;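 further: MDM2 E3 inhibitors raise luminescence so EC50 is for signal enhancement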
# [2] = biological target: Bifunctional protein GlmU (Mycobacterium tuberculosis, UniProt P9WMN3); test: Inhibitors of Mycobacterial Glucosamine-1-phosphate acetyl transferase (GlmU). Secondary screen.; parameters: species or system Mycobacterium tuberculosis H37Rv
# [3] = biological target: Photoreceptor-specific nuclear receptor (Homo sapiens, UniProt Q9Y5X4); test: ligands suppressing NR2E3 nuclear receptor activity – biochemical, TR-FRET, dose response (AID 463256); type: functional
# [4] = biological target: Peroxisome proliferator-activated receptor gamma/Nuclear receptor corepressor 2 (Homo sapiens, UniProt P37231+Q9Y618); test: Counterscreen for NR2E3 inverse agonists: TR-FRET-based biochemical high throughput dose response assay to identify inverse agonists of the interaction between peroxisome proliferator-activated receptor gamma (PPARg) and nuclear receptor co-repressor 2 (NCOR2).; type: functional
# [5] = biological target: T2, Tyrosine-protein phosphatase non-receptor type 7 (Homo sapiens, UniProt P35236); test: HePTP tyrosine phosphatase activity blockers – biochemical, absorbance, leukemia target, primary screen (AID 521); type: functional
# T2 sequence (P35236 whole entry): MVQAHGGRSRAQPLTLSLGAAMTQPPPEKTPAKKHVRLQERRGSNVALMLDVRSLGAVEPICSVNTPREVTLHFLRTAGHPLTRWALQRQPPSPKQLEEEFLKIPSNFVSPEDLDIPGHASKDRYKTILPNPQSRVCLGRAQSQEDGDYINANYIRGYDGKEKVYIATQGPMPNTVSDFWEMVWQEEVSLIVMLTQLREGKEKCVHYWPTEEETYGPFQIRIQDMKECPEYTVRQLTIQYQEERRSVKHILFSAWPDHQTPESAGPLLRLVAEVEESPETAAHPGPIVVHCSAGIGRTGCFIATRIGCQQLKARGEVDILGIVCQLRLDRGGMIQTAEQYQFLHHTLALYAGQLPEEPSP
# [6] = Luminescence Cell-Based Dose Confirmation HTS to Identify Inhibitors of Platelet Dense Granule Release. [Related pubchem assays: 1663 (Primary HTS), 1678 (Summary of Project)]; type: functional
# [7] = Fluorescence Cell-Based Dose Response to Identify Inhibitors of Thrombin Receptor-Activating Peptide SFLLRN-Mediated P-Selectin Induction on Platelets. [Related pubchem assays: 1663 (Primary HTS), 1889 (retest at dose ), 1891 (counterscreen), 1678 (Project Summary)]; type: functional
# [8] = biological target: Luciferin 4-monooxygenase (Photinus pyralis, UniProt P08659); test: inhibition of purified Photinus pyralis luciferase – biochemical, luminescence, dose response (AID 1891)
# [9] = biological target: T3, Probable nicotinate-nucleotide adenylyltransferase (Staphylococcus aureus (strain N315), UniProt P65502); type: functional, Staphylococcus aureus subsp. aureus N315;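 on IC50 Mean: confirmatory dose-response retesting of NadD inhibitor hits first found in an ultra-high-throughput screen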
# Genome polyprotein = Genome polyprotein (Hepatitis C virus, UniProt Q2Q167); test: disruption of hepatitis C core self-association – biochemical, TR-FRET, dose response (AID 2159); parameters: species or system Hepacivirus hominis;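 further: blocks dimerization of HCV core protein measured by TR-FRET between tagged core106 pairs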
# [10] = biological target: T3, Probable nicotinate-nucleotide adenylyltransferase; type: functional, Staphylococcus aureus subsp. aureus N315; details: read-out: IC50_Mean
# [11] = biological target: T4, Carboxy-terminal domain RNA polymerase II polypeptide A small phosphatase 1 (Homo sapiens, UniProt Q9GZU7); test: CTDSP1 inhibitors, concentration-response, biochemical, absorbance readout, ultra-high-throughput screen actives (AID 540297); type: functional
# T4 sequence (Q9GZU7 whole entry): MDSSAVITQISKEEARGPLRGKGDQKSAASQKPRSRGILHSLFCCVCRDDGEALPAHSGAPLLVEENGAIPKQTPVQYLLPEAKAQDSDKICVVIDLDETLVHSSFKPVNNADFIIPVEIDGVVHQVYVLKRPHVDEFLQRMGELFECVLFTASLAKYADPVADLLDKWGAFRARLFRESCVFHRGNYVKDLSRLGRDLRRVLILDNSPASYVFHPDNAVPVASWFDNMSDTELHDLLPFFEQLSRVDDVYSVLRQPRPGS
# [12] = Late stage counterscreen results from the probe development effort to identify activators of signal transducer and activator of transcription 1 (STAT1): luminescence-based cell-based dose response assay to identify cytotoxic compounds.; type: functional
# Cytochrome P450 2C19 = Cytochrome P450 2C19 (Homo sapiens, UniProt P33261); test: qHTS Assay for Inhibitors and Substrates of Cytochrome P450 2C19. [Related pubchem assays: 410 ]; type: ADME; details: read-out: Potency
# NADPH oxidase 1 [13] = biological target: T5, NADPH oxidase 1 (Homo sapiens, UniProt Q9Y5S8); type: functional, cell-based
# [14] = NIH-3T3 fibroblast cytotoxicity, dose response, cytotoxicity control, cell-based, fluorescence, Alamar Blue, secondary assay (AID 2327); type: functional;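 further: NIH-3T3 mouse fibroblasts cultured with fluconazole at 8 µg/mL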
# [15] = Luminescence Cell-Based Dose Retest to Confirm Inhibitors of Cancer Stem Cells. [Related pubchem assays (depositor defined):AID2717, AID2721]; type: functional; details: Homo sapiens
# Cytochrome P450 1A2 = biological target: T6, Cytochrome P450 1A2 (Homo sapiens, UniProt P05177);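 further: PubChem cytochrome P450 panel assay, CYP1A2 panel member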
# T6 sequence (P05177 whole entry): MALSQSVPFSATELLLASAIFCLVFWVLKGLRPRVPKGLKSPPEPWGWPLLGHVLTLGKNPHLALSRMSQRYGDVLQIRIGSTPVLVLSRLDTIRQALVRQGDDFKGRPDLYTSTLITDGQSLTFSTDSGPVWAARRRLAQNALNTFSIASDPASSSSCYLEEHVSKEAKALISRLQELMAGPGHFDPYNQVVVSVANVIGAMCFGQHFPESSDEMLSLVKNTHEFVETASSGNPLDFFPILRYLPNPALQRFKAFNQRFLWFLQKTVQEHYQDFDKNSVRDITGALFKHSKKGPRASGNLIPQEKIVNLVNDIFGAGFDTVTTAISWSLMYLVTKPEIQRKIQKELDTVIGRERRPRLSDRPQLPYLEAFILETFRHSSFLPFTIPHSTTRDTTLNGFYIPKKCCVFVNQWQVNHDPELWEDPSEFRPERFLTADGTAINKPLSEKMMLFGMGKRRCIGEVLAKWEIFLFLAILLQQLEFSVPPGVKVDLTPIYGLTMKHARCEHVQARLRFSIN
# [16] = loss of viability in HepG2 cells – cell-based, CellTiter-Glo, cherry-picked, cytotoxicity control for Shn3 inhibitor project, dose response (AID 624134); type: functional
# [17] = Luminescence Cell-Based Dose Response HTS to Identify Inhibitors of 5'UTR Stem-Loop Driven Prion Protein mRNA Translation in H4 Neuroglioblastoma Cells. [Related pubchem assays: 1827 (Project Summary), 1813 (Primary HTS)]; type: functional
# [18] = biological target: Voltage-gated inwardly rectifying potassium channel KCNH2 (Homo sapiens, UniProt Q12809); test: concentration-dependent hERG rescue from blockers – cell-based, thallium flux, dose response (AID 2121); type: ADME
# [19] = reduction of Shn3 3'UTR-driven luciferase in osteoblasts – cell-based, Clone20 osteoblasts, firefly luciferase, cherry-picked, dose response (AID 624132); type: functional;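 further: firefly luciferase luminescence from reporter carrying the Shn3 3'UTR in osteoblasts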
# Exodeoxyribonuclease V = Exodeoxyribonuclease V (Escherichia coli (strain K12), UniProt P04993+P07648+P08394); test: RecBCD inhibition via phage-restricted bacterial growth – absorbance, V66 E. coli, mutant T4 phage, counter-screen for AddAB inhibitor project, dose response (AID 492957); type: functional, cell-based, Escherichia coli str. K-12 substr. MG1655
# [20] = Counterscreen for AddAB inhibitors: absorbance-based bacterial cell-based high throughput dose response assay for inhibitors of bacterial viability. [Related pubchem assays (depositor defined):AID435030, AID449728, AID449731, AID488942, AID488955, AID488956]; type: functional
# [21] = fluconazole-exposed Candida albicans growth modulators – fluorescence, retest, confirmation (AID 2467); type: functional, cell-based
# [22] = alpha-synuclein stem-loop luciferase translation blockers – H4 neuroglioma cells, luminescence, confirmation (AID 1988); type: functional, cell-based
# [23] = luciferase reporter signal suppression in cells – H4 neuroglioma cells, luminescence, dose response (AID 1990); type: functional, cell-based
# Cytochrome P450 2D6 = Cytochrome P450 2D6 (Homo sapiens, UniProt P10635);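 further: CYP2D6 member of a cytochrome P450 panel assay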
# [24] = non-specific 3'UTR reporter inhibition in Clone20-Shn3RL – cell-based, Renilla luciferase, cherry-picked, counter-screen for Shn3 inhibitor project, dose response (AID 624133); type: functional
# NADPH oxidase 1 [25] = biological target: T5, NADPH oxidase 1; test: Late stage results from the probe development effort to identify inhibitors of NOX1: HEK/293 IC50. [Related pubchem assays: 1796 (Summary AID (NOX1)), 2752 (Primary screen (NOX1 inhibitors, synthesized analogs set 2)), 2664 (Primary screen (NOX1 inhibitors, synthesized analogs)), 1792 (Primary Screen (NOX1)), 2545 (Confirmation screen (NOX1 …; type: functional
# Luciferin 4-monooxygenase, sequence (P08659 whole entry): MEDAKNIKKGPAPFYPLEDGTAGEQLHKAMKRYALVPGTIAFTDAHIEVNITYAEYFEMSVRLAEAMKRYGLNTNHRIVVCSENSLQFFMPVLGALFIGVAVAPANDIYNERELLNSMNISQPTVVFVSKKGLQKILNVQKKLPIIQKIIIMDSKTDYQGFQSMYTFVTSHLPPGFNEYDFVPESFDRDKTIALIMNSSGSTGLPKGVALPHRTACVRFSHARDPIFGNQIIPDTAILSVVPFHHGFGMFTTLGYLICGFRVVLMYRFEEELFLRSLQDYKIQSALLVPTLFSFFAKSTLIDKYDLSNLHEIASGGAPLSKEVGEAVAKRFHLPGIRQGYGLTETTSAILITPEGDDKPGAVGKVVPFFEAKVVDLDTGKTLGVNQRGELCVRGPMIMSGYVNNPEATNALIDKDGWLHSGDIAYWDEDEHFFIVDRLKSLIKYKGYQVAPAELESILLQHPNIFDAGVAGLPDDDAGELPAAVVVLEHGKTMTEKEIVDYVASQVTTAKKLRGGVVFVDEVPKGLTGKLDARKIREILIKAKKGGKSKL
# T3 sequence (P65502 whole entry): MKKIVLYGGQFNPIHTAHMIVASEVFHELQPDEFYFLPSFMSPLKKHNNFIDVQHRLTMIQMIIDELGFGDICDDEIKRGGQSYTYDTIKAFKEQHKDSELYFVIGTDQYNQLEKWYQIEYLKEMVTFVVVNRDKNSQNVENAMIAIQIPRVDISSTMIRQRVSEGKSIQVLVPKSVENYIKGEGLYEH
# T5 sequence (Q9Y5S8 whole entry): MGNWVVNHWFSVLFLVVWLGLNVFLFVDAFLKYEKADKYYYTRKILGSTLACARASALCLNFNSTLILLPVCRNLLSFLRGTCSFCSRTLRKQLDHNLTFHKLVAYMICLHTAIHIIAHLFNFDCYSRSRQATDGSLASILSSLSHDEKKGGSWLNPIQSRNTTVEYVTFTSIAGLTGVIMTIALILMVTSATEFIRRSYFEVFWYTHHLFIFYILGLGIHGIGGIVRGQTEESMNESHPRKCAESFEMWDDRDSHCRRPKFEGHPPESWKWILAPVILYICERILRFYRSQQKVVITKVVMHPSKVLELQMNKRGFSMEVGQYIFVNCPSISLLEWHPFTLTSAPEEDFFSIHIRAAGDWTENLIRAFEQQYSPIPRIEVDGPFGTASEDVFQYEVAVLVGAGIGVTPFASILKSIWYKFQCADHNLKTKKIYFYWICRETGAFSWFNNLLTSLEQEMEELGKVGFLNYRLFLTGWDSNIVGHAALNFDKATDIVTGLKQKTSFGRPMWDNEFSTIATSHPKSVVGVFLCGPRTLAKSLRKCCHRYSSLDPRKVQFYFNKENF
# Peroxisome proliferator-activated receptor gamma/Nuclear receptor corepressor 2, sequence (P37231 whole entry): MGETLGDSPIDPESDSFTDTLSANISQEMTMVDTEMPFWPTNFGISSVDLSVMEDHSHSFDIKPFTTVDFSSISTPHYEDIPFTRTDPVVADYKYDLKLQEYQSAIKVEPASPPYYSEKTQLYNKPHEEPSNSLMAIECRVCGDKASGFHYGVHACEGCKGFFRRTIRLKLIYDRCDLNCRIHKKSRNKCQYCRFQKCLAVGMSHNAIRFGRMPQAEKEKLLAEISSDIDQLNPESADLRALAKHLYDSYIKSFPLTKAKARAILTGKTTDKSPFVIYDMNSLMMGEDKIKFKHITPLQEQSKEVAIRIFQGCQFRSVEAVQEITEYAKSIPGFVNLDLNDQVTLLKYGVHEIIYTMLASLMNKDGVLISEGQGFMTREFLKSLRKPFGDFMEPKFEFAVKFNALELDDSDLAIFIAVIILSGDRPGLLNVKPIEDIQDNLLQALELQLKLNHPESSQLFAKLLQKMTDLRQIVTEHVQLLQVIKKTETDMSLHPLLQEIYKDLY
# Peroxisome proliferator-activated receptor gamma/Nuclear receptor corepressor 2, sequence (Q9Y618 whole entry): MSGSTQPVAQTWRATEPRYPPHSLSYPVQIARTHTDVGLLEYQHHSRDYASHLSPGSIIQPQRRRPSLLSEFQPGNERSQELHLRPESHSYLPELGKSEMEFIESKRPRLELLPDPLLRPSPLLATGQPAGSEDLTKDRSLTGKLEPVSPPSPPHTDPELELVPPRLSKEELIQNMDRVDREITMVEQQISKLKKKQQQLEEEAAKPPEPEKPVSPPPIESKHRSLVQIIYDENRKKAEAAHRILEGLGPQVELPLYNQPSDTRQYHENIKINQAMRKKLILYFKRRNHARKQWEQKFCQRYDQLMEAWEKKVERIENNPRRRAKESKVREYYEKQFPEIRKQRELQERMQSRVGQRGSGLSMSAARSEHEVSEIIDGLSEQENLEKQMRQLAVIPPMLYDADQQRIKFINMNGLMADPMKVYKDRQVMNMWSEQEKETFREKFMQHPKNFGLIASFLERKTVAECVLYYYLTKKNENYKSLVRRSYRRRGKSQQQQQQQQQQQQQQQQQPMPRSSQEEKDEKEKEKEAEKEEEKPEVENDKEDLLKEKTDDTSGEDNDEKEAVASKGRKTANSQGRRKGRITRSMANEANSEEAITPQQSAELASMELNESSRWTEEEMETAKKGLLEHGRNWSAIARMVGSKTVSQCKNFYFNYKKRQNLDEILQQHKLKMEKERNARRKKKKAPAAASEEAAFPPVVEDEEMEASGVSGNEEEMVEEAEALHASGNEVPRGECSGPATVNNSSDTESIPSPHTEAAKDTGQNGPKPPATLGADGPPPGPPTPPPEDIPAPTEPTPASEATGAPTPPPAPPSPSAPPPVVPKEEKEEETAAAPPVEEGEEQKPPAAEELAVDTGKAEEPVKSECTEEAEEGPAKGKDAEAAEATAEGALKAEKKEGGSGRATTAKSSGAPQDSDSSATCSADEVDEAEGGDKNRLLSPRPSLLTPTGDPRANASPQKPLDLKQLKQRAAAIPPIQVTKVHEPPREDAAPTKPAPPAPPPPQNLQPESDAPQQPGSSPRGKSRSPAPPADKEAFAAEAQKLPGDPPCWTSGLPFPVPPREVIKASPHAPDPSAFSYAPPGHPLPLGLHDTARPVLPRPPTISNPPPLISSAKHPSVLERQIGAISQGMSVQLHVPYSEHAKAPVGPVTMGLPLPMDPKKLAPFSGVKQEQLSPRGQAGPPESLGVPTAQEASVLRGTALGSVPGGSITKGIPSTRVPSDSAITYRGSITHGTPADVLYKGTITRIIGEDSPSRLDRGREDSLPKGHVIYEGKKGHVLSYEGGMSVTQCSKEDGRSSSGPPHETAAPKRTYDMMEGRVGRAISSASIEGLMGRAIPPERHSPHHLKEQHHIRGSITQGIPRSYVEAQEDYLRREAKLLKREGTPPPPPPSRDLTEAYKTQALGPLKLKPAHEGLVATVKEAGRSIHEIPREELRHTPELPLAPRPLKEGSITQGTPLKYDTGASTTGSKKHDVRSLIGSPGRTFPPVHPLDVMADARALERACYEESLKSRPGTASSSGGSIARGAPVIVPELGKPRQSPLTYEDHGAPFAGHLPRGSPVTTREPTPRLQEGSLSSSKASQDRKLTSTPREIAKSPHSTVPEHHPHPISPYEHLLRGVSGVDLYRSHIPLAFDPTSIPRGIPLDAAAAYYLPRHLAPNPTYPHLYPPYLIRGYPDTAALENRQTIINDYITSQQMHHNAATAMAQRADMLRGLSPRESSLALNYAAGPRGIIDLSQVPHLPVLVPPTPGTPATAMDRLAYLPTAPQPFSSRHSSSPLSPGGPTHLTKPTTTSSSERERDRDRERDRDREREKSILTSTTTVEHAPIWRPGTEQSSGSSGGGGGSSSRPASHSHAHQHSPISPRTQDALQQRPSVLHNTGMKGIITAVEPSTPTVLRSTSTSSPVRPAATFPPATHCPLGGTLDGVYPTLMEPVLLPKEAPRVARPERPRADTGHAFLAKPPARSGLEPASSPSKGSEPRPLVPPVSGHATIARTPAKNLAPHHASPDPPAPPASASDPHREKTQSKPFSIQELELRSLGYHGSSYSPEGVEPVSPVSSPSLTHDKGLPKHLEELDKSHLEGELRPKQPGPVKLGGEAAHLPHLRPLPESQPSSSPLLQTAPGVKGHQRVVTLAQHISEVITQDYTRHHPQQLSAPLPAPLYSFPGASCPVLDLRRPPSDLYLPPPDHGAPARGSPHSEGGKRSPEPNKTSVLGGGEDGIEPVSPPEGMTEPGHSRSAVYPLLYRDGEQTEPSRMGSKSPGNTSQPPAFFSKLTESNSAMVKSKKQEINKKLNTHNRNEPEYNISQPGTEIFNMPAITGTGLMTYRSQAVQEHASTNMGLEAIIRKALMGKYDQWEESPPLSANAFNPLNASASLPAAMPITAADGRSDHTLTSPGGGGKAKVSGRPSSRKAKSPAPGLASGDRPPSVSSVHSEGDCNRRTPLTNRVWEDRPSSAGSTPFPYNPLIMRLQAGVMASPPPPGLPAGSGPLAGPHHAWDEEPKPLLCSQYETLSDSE
# Cytochrome P450 2D6, sequence (P10635 whole entry): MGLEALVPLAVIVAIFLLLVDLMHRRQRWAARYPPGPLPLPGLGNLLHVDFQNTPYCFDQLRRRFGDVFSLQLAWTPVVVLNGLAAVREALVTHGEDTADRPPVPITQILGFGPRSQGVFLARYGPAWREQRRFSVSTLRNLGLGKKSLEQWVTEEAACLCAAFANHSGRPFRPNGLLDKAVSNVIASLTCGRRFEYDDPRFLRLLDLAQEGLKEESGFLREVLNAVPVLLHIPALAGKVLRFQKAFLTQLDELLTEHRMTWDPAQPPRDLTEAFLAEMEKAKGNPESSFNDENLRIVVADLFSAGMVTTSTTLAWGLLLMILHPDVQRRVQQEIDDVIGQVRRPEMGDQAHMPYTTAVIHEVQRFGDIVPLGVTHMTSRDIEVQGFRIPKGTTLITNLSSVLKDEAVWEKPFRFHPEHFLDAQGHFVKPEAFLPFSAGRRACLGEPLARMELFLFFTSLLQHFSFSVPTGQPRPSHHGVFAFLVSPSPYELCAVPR
# Genome polyprotein, sequence (Q2Q167 whole entry): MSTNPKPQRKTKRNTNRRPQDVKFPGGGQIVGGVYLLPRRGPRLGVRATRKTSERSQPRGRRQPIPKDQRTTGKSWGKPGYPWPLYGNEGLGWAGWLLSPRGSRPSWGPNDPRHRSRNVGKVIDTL
compound,measurement,setting,value
CCN(CC)c1ccc(/C=C2/C(=O)c3ccc(C(=O)O)cc3C2=O)cc1,IC50,Protein skinhead-1,20.9 µM (active)
same,EC50,[1],70 nM (active)
same,IC50,[2],34.3 µM (active)
Cn1c(SCC(=O)Nc2cccc(F)c2)nnc1-c1cc2ccccc2o1,IC50,[3],2.61 µM (active)
same,IC50,[4],1.67 µM (active)
Cc1c(C(=O)N2CCOCC2)[nH]c2ccc(OCc3ccccc3)cc12,IC50,[5],> 100 µM (not active)
COc1cc2c(cc1OC)-c1cc(N3CCCCCC3)nc(=O)n1CC2,EC50,[6],1.66 µM (active)
same,EC50,[7],< 300 nM (active)
same,EC50,[8],> 112 µM (not active)
Cc1ccc(NC(=O)c2cc(-c3ccco3)nc3ccccc23)cc1S(=O)(=O)N1CCOCC1,IC50,[9],8.01 µM (active)
same,IC50,Genome polyprotein,> 49.8 µM (not active)
same,IC50,[10],26.6 µM (active)
same,IC50,[11],5.51 µM (active)
O=C(/C=C/Nc1ccccc1F)c1ccc(Br)cc1,IC50,[12],> 55.7 µM (not active)
same,EC50,[6],> 112 µM (not active)
same,EC50,[8],74.5 µM (active)
CC(C)C[C@@H](CC(=O)N[C@H](CC(=O)N[C@@H]1CCCC[C@H]1C(=O)N[C@H](CC(=O)N[C@@H](CCC(=O)O)CC(=O)O)CC(C)C)C(C)C)NC(=O)[C@@H]1CNCC[C@H]1N,AC50,Cytochrome P450 2C19,31.6 µM (inconclusive)
O=[N+]([O-])c1ccc(-c2nc(-c3ccccc3)c(-c3ccccc3)[nH]2)cc1,IC50,NADPH oxidase 1 [13],> 17 µM (not active)
Cc1cc([N+](=O)[O-])ccc1-c1ccc(C2Nc3ccccc3C(=O)N2O)o1 (stereo not drawn),EC50,[14],> 160 µM (inconclusive)
same,AC50,[15],5.3 µM (active)
same,AC50,Cytochrome P450 1A2,25.1 µM (inconclusive)
same,AC50,[16],32.9 µM (active)
same,EC50,[17],10.4 µM (active)
same,EC50,[18],2.58 µM (active)
same,AC50,[19],3.32 µM (active)
same,IC50,Exodeoxyribonuclease V,> 119 µM (inactive)
same,IC50,[20],> 119 µM (inactive)
same,EC50,[21],1.31 µM (active)
same,EC50,[22],8.61 µM (active)
same,EC50,[23],10.3 µM (active)
same,AC50,Cytochrome P450 2D6,20 µM (inconclusive)
same,AC50,[24],11.3 µM (active)
O=C(Oc1ccccc1N1CCCCC1)c1sc2ccccc2c1Cl,IC50,NADPH oxidase 1 [25],2.31 µM (active)
